Read-outs that look alike come from different tables or passages of the source.

Data set [1] can be described thus: Aspirin toxicity (LD50, estimated toxicity limit). The data set is classed as in vivo. Particulars: ⅙ of LD50.
For data set [2], the system named is Vesicular Stomatitis virus (VSV). The settings on record: Chen et al., Virology 276 (2000); cited from earlier work.
The subject of data set [3] is LLC-MK2 cells infected with SeV18+SEAP/ΔF-GFP. Nature of the data set: LDH release (cell damage) from SeV-infected LLC-MK2 cells. Particulars: for cell damage (LDH release): agents added two days after infection, at the concentration tested. A general note: LDH leaks from cells whose membrane has failed.
Description: (§1) LLC-MK2 (monkey kidney-derived cells) were seeded into 6-well plates at a concentration of 5×10^5 cells/well, and then cultured in MEM (Gibco-BRL, Rockville, Md.) media containing 10% fetal bovine serum (FBS: BioWhittaker, Walkersville, Md.) at 37° C. for 24 hours in a 5% CO2 incubator. Cells were washed with PBS and infected with F-deleted SeV encoding secretion-type alkaline phosphatase (SEAP)) and green fluorescence protein (GFP) genes (SeV18+SEAP/ΔF-GFP: FIG. 1) at MOI=3. […] After infection, cell culture was continued in MEM media without serum. […] Media from each culture was collected and subsequently replaced with fresh media containing the same content every two days. Heme agglutination activity (HA activity) was measured as an indicator of virion formation; lactose dehydrogenase (LDH) quantification was measured as an indicator of cell damage; and SEAP activity was measured as an indicator of the expression level of genes carried on the vector.
(§2) HA activity was measured using the method described by Kato et al., (Kato, A. et al. , Genes Cells 1, 569-579 (1996)). That is, virus-containing media was subjected to two-fold serial dilution in a 96 round bottom well plate, such that each well contained 50 ul samples. A 50 ul solution of preserved chicken blood (COSMO BIO Co., Ltd., Tokyo, Japan), diluted to 1% with PBS, was added to each well and mixed. The mixture was incubated at 4° C. for one hour. Agglutination of red blood cells was observed, and HA activity was calculated by selecting the highest virus dilution in which agglutination was still observed. Additionally, 1 HA U was considered to be equal to 1×10^6 viruses, and values were shown as a number of viruses. […] LDH quantification was conducted using a Cytotoxicity Detection Kit (Roche, Basel, Switzerland) according to the methodin the kit. […] SEAP activities were measured using a Reporter Assay Kit-SEAP (TOYOBO, Osaka, Japan) according to kit method.
(§3) That is, LLC-MK2 was plated in a 6-well plate at a concentration of 5×10^5 cells/well, and incubated in MEM media containing 10% fetal bovine serum at 37° C. for 24 hours in a 5% CO2 incubator. […] After infection, culture was continued in MEM media without serum. […] Cultured media was recovered every two days, and at this time fresh media, either with or without 5 mM aspirin, was added. The cultures were treated with aspirin for either 0, 2, 4, 6, or 8 days, and then examined. The recovered culture media was analyzed for HA activity, LDH quantification, and SEAP activity. GFP expression and cell damage were also periodically examined using fluorescence microscopy.
(§4) The experiment was conducted as described in Example 1: LLC-MK2 was plated onto a 6-well plate at a concentration of 5×10^5 cells/well, and incubated in MEM media containing 10% fetal bovine serum at 37° C. for 24 hours in a 5% CO2 incubator. […] After infection, cells were cultured in MEM media without serum for two days, then cultured in MEM media (without serum) containing agents at the recorded concentrations. Cultured media was collected every two days and replaced with a same volume of fresh media. HA activity analysis and LDH quantitative analysis were performed on recovered culture media. GFP expression and cell damage were also periodically examined using fluorescence microscopy.
The test system is the same in data set [4]. The data set is described as follows: GFP expression and cell damage by fluorescence microscopy. Particulars: 5 mM aspirin.
Description: LLC-MK2 (monkey kidney-derived cells) were seeded into 6-well plates at a concentration of 5×10^5 cells/well, and then cultured in MEM (Gibco-BRL, Rockville, Md.) media containing 10% fetal bovine serum (FBS: BioWhittaker, Walkersville, Md.) at 37° C. for 24 hours in a 5% CO2 incubator. Cells were washed with PBS and infected with F-deleted SeV encoding secretion-type alkaline phosphatase (SEAP)) and green fluorescence protein (GFP) genes (SeV18+SEAP/ΔF-GFP: FIG. 1) at MOI=3. […] After infection, cell culture was continued in MEM media without serum. Two days after infection, the media was replaced with MEM media (without serum) containing 0.625, 1.25, 2.5, and 5 mM of aspirin, or no aspirin. […] Heme agglutination activity (HA activity) was measured as an indicator of virion formation; lactose dehydrogenase (LDH) quantification was measured as an indicator of cell damage; and SEAP activity was measured as an indicator of the expression level of genes carried on the vector.
GFP expression level and cell damage were also periodically observed using fluorescence microscopy.
That is, LLC-MK2 was plated in a 6-well plate at a concentration of 5×10^5 cells/well, and incubated in MEM media containing 10% fetal bovine serum at 37° C. for 24 hours in a 5% CO2 incubator. […] The recovered culture media was analyzed for HA activity, LDH quantification, and SEAP activity. […]
For data set [5], the system named is SEAP gene carried on SeV18+SEAP/ΔF-GFP.
Description: LLC-MK2 (monkey kidney-derived cells) were seeded into 6-well plates at a concentration of 5×10^5 cells/well, and then cultured in MEM (Gibco-BRL, Rockville, Md.) media containing 10% fetal bovine serum (FBS: BioWhittaker, Walkersville, Md.) at 37° C. for 24 hours in a 5% CO2 incubator. Cells were washed with PBS and infected with F-deleted SeV encoding secretion-type alkaline phosphatase (SEAP)) and green fluorescence protein (GFP) genes (SeV18+SEAP/ΔF-GFP: FIG. 1) at MOI=3. […] After infection, cell culture was continued in MEM media without serum. Two days after infection, the media was replaced with MEM media (without serum) containing 0.625, 1.25, 2.5, and 5 mM of aspirin, or no aspirin. Media from each culture was collected and subsequently replaced with fresh media containing the same content every two days.
SEAP activities were measured using a Reporter Assay Kit-SEAP (TOYOBO, Osaka, Japan) according to kit method.
Data set [6] deals with Sendai virus (SeV) vector SeV18+SEAP/ΔF-GFP. Nature of the data set: HA activity (virion formation) in culture media of SeV-infected LLC-MK2 cells. Particulars: for SeV transcription and replication (HA activity): agents added two days after infection, SeV18+SEAP/ΔF-GFP or SeV18+/ΔF-GFP, MOI=3; for SeV transcription and replication with NO-associated agents: agent added two days after infection.
Description: as §1, §2, §3, §4

In the next data set the test system is Cytomegarovirus. The settings on record: Albrecht et al. (1987); cited from earlier work.
Setting [7] is: 5 mM aspirin, regardless of length of treatment.
Where [8] appears, read: 0.625-5 mM aspirin added two days after infection.

With `CC(=O)Oc1ccccc1C(=O)O` [aspirin, acetylsalicylic acid], the estimated toxicity limit in data set [1] was 300 mg/kg. Also, the “multiplication of VSV” value in data set [2] is on record as “suppressed the multiplication of the Vesicular Stomatitis virus (VSV)”. Further, the “cell damage (LDH)” value in data set [3] (5 mM aspirin) is reported as “Almost no cell damage was observed”. Further, the “time after end of aspirin treatment until LDH increases” value in data set [3] (setting [7]) is recorded as “four”. The LDH release result in data set [3] (setting [8]) is given as “concentration-dependent decrease in LDH release”. In data set [3], the “cell damage (LDH release)” value is reported as “reducing cytotoxicity”. Besides, the “nature of suppression of SeV transcription and replication” value in data set [4] (after withdrawal) is given as “transient”. Also, the “GFP expression and cell damage during aspirin treatment” value in data set [4] (treatment 0-8 days) was “GFP expression is low and cell damage is not observed”. Also, the SEAP activity entry was “most significant decrease in activity” in data set [5] (5 mM aspirin) and “concentration-dependent decrease in SEAP activity” in data set [5] (setting [8]). In addition, the “HA activity (virion formation)” value in data set [6] (5 mM aspirin added two days after infection, MOI=3, LLC-MK2) is given as “suppressed the increase in HA activity”. Also, the “time after end of aspirin treatment until HA activity and virion formation increase” value in data set [6] (setting [7]) was “two”. Further, the “HA activity during aspirin treatment” value in data set [6] (5 mM aspirin, treatment 0, 2, 4, 6 or 8 days) is recorded as “increase in HA activity was low during aspirin treatment”. The “SeV transcription and replication (HA activity)” value in data set [6] was “suppressed SeV transcription and replication”.
Regarding `O=C(NCCO[N+](=O)[O-])c1cccnc1` [nicorandil], the “SeV transcription and replication with NO-associated agents” value in data set [6] was “did not significantly suppress transcription and replication”.
For the compound `Cc1cccc(Nc2ccccc2C(=O)O)c1C` [Mefenamic acid], the “cell damage (LDH release)” value in data set [3] is “enhanced cell damage”. Moreover, the “SeV transcription and replication (HA activity)” value in data set [6] is “suppressed SeV transcription and replication”.
As for `CC(C(=O)O)c1cccc(C(=O)c2ccccc2)c1` (centres unmarked) [Ketoprofen], the “cell damage (LDH release)” value in data set [3] is “reduced cell damage”. Besides, the “SeV transcription and replication (HA activity)” value in data set [6] was “suppressed SeV transcription and replication”.
Consider `COc1ccc(Cc2nccc3cc(OC)c(OC)cc23)cc1OC` [Papaverin], for which, in the data set on Cytomegarovirus, the Cytomegarovirus multiplication result is on record as “suppress Cytomegarovirus multiplication”. Moreover, the “cell damage (LDH release)” value in data set [3] is on record as “enhanced cell damage”. Besides, the “SeV transcription and replication (HA activity)” value in data set [6] is “suppressed SeV transcription and replication”.
As to `COc1ccc2c(c1)c(CC(=O)O)c(C)n2C(=O)c1ccc(Cl)cc1` [indomethacin, Indomethacin], in data set [3], the “cell damage (LDH release)” value is “only moderately reduced cell damage”. For the same compound, the “SeV transcription and replication (HA activity)” value in data set [6] was “suppressed SeV transcription and replication”.
Turning to `CC(C(=O)O)c1ccc(-c2ccccc2)c(F)c1` (centres unmarked) [Flurbiprofen], the “cell damage (LDH release)” value in data set [3] is recorded as “only moderately reduced cell damage”. Besides, in data set [6], the “SeV transcription and replication (HA activity)” value was “suppressed SeV transcription and replication”.
Regarding `O=[N+]([O-])O[C@H]1CO[C@H]2[C@@H]1OC[C@H]2O[N+](=O)[O-]` [isosorbide dinitrate], the “SeV transcription and replication with NO-associated agents” value in data set [6] was “did not significantly suppress transcription and replication”.
With `O=C(O)Cc1ccccc1Nc1c(Cl)cccc1Cl` [Diclofenac sodium], the “cell damage (LDH release)” value in data set [3] is recorded as “enhanced cell damage”. The “SeV transcription and replication (HA activity)” value in data set [6] was “suppressed SeV transcription and replication”.
